In US20230148005A1, “MACROCYCLIC COMPOUNDS AND USES THEREOF” (THESEUS PHARMACEUTICALS, INC., priority 2020, published 2023):
Like-named read-outs stand apart in the source and are kept apart here.

Tests used:
Ba/F3 Parental = assay: Ba/F3 viability assay (CellTiter-Glo), parental; type: cell-based
Description: (§1) Inhibition of cell proliferation can be studied using Ba/F3 viability assays, including the Promega CellTiter-Glo cell viability assay. This assay can be used to study the effect of compounds described herein in the following assays: (1) Ba/F3 Parental; (2) Ba/F3 EGFR-Del19/T790M; (3); Ba/F3 EGFR-Del19/C797S; and (4) Ba/F3 EGFR-Del19/T790M/C797S.

EGFR^L58R/T790M = EGFR^L58R/T790M (Homo sapiens, UniProt P00533, L858R/T790M); assay: in vitro kinase assay (HTRF KinEASE-TK kit), LT; type: biochemical; conditions: kinase inhibition
EGFR^L58R/T790M, sequence (P00533 25-1210 T790M/L858R): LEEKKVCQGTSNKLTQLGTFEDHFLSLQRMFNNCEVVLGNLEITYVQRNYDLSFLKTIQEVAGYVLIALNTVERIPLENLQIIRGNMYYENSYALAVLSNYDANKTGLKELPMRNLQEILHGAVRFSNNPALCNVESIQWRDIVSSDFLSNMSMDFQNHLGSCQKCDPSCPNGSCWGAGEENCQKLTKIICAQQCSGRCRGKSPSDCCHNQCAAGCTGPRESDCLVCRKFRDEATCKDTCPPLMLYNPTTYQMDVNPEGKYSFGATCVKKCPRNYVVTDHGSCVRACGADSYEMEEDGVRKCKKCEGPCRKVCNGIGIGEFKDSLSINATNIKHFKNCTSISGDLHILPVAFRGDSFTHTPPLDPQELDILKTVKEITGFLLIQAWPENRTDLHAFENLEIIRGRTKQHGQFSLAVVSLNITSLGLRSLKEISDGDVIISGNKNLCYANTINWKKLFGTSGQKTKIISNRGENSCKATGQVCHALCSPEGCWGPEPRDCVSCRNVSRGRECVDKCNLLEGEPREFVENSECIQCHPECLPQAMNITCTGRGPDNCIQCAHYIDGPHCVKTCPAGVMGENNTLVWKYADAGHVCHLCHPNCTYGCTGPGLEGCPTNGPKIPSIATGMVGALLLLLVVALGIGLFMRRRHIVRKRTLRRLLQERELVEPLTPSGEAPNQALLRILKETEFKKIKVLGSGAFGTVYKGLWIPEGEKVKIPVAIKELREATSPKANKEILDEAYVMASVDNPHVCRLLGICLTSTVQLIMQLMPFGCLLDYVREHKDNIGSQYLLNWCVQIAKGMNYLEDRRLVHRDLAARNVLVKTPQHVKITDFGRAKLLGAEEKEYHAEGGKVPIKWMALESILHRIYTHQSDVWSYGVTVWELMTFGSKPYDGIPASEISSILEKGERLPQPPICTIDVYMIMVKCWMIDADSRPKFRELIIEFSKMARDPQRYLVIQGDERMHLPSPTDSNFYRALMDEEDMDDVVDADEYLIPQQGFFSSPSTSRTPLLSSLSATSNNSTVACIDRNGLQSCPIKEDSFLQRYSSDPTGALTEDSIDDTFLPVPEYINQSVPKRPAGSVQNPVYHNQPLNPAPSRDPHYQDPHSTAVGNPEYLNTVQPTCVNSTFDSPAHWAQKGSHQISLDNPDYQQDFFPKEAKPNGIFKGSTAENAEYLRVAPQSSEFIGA
Description: (§2) Assays using an in vitro kinase assay kit (HTRF KinEASE-TK kit) can be used to study the inhibitory activity of compounds described herein with respect to EGFR mutants such as EGFR^L858R, EGFR^L58R/T790M, and EGFR^L858R/T790M/C^797S.

EGFR^L858R/T790M/C^797S = EGFR^L858R/T790M/C^797S (Homo sapiens, UniProt P00533, C797S/L858R/T790M); assay: in vitro kinase assay (HTRF KinEASE-TK kit), LTC; type: biochemical; conditions: kinase inhibition
EGFR^L858R/T790M/C^797S, sequence (P00533 25-1210 T790M/C797S/L858R): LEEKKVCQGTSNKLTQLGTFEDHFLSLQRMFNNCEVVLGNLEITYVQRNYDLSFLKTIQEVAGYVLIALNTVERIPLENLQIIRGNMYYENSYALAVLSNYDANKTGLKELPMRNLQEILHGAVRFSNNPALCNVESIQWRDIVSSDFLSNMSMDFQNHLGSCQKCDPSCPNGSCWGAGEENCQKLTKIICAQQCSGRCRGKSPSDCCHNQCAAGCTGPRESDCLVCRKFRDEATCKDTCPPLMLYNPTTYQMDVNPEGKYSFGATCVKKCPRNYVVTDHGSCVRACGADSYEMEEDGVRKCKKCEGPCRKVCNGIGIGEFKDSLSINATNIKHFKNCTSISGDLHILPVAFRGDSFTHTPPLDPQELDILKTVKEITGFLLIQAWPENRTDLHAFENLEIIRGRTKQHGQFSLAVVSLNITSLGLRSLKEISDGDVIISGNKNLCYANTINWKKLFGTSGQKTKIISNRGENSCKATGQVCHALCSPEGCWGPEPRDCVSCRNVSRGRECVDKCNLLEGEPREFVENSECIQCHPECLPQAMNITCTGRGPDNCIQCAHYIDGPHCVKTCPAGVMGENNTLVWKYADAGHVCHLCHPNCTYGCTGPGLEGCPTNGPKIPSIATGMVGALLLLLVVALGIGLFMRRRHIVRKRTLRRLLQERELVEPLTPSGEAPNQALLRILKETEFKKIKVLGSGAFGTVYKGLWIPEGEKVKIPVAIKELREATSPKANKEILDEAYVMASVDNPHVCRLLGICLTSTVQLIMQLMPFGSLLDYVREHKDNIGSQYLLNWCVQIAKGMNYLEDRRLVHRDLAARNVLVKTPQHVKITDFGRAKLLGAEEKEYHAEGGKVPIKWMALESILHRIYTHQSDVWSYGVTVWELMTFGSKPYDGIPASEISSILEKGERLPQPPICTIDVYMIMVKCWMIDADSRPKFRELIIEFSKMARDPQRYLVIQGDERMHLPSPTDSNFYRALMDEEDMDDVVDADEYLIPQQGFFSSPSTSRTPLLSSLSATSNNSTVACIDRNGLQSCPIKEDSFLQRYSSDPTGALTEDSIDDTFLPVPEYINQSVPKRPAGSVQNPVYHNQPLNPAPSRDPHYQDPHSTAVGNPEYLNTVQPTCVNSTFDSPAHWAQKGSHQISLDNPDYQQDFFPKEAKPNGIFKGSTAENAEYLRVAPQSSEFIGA
Description: as §2

Ba/F3 EGFR-Del19/C797S = Ba/F3 EGFR-Del19/C797S (Homo sapiens, UniProt P00533, C797S, cells depend on it, form not given); assay: Ba/F3 viability assay (CellTiter-Glo), DC; type: cell-based; conditions: anti-proliferation, read-out: BaF3 DC IC50
Description: as §1

EGFR^L858R = EGFR^L858R (Homo sapiens, UniProt P00533, L858R); assay: in vitro kinase assay (HTRF KinEASE-TK kit), L; type: biochemical; conditions: kinase inhibition
Description: as §2

[1] = molecular target: Ba/F3 EGFR-Del19/T790M/C797S (Homo sapiens, UniProt P00533, T790M/C797S, cells depend on it, form not given); assay: Ba/F3 viability assay (CellTiter-Glo), DTC; type: cell-based; conditions: anti-proliferation, read-out: BaF3 DTC IC50
Ba/F3 EGFR-Del19/T790M/C797S, sequence (P00533 with tags, fused parts or gaps DEL746-750/T790M/C797S, form open): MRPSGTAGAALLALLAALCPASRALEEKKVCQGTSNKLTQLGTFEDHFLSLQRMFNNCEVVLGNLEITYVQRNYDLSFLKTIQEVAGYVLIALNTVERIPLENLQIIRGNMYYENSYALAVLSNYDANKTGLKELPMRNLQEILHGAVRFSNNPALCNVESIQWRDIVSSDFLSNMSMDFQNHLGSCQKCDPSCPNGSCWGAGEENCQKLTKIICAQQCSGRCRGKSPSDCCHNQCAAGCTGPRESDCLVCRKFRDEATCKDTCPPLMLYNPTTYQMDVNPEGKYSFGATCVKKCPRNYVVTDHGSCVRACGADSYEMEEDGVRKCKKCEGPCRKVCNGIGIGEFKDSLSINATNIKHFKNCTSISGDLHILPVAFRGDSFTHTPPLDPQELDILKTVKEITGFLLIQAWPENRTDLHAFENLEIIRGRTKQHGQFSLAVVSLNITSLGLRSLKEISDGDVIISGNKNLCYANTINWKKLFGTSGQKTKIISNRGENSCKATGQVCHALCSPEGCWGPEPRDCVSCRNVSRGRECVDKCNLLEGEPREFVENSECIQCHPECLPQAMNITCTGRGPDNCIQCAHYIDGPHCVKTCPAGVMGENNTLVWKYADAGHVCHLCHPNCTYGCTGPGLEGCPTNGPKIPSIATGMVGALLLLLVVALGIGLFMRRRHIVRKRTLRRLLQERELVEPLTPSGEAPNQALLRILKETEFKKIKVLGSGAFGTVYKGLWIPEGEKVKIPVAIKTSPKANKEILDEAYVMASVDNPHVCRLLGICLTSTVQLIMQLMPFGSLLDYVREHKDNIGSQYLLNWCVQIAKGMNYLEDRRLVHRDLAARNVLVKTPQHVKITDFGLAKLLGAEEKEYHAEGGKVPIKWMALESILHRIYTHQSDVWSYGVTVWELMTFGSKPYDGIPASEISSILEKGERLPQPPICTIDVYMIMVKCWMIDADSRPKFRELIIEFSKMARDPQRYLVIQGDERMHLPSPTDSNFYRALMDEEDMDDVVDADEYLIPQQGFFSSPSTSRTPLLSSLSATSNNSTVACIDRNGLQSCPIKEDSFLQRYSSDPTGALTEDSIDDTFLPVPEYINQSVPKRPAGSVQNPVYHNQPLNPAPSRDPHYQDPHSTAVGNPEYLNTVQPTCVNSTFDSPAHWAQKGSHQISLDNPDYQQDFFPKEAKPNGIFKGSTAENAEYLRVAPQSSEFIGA
Description: as §1

Ba/F3 EGFR-Del19/T790M = Ba/F3 EGFR-Del19/T790M (Homo sapiens, UniProt P00533, T790M, cells depend on it, form not given); assay: Ba/F3 viability assay (CellTiter-Glo), DT; type: cell-based; conditions: anti-proliferation, read-out: BaF3 DT IC50
Ba/F3 EGFR-Del19/T790M, sequence (P00533 with tags, fused parts or gaps DEL746-750/T790M, form open): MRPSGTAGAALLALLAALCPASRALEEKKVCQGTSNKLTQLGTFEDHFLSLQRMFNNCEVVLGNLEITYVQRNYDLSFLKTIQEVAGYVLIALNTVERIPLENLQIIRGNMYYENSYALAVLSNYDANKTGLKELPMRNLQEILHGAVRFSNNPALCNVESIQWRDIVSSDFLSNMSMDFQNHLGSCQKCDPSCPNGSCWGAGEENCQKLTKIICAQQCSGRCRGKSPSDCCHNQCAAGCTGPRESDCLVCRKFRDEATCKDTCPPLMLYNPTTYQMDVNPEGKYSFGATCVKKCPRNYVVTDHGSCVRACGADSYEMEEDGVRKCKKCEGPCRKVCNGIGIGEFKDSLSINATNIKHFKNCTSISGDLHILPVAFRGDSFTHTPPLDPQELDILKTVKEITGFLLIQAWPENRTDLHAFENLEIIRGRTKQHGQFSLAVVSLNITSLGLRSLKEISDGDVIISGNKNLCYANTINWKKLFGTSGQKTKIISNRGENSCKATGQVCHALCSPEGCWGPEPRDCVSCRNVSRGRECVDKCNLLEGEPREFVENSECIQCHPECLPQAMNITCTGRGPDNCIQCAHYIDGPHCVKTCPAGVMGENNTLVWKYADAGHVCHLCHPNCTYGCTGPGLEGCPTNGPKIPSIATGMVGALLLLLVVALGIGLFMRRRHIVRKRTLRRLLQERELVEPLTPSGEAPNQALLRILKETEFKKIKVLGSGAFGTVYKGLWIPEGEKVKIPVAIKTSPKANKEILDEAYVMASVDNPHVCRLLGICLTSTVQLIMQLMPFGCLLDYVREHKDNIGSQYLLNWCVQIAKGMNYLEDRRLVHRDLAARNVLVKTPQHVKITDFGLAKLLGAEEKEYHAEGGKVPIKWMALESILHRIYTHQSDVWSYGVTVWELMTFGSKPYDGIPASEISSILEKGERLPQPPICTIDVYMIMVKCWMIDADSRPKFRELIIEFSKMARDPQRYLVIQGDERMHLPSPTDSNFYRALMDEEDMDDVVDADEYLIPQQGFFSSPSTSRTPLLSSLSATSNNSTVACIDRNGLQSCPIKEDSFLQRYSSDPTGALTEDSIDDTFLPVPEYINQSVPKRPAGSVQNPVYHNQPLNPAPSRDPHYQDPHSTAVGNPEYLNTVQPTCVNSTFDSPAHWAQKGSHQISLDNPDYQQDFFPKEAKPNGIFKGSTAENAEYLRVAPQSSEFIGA
Description: as §1

[2] = Mus musculus, BaF3, anti-proliferation

SMILES	IC50 (EGFR^L58R/T790M)	IC50 (EGFR^L858R/T790M/C^797S)	IC50 (EGFR^L858R)	IC50 (Ba/F3 Parental; [2])	GI50 (Ba/F3 EGFR-Del19/C797S)	GI50 [1]	GI50 (Ba/F3 EGFR-Del19/T790M)	IC50 (Ba/F3 Parental; anti-proliferation, read-out: BaF3 parental IC50)
CC1CCCCOc2c(cnn2C)-c2nccc(n2)Nc2cc3c(cn2)c(N2CCC2)nn31 (stereo not shown) [(58)]	< 10 nM	< 10 nM	10 to 100 nM	≥ 1000 nM	10 to 100 nM	10 to 100 nM	10 to 100 nM	–
COC(=O)C1CCCN1c1nn2c3cc(ncc13)Nc1ccnc(n1)-c1cnn(C)c1OCCC2 (stereo not shown) [(61)]	< 10 nM	10 to 100 nM	100 to 1000 nM	≥ 1000 nM	100 to 1000 nM	100 to 1000 nM	100 to 1000 nM	–
Cn1ncc2c1OCCCn1nc(N3CCCC3CO)c3cnc(cc31)Nc1ccnc-2n1 (stereo not shown) [(62)]	< 10 nM	< 10 nM	100 to 1000 nM	100 to 1000 nM	100 to 1000 nM	100 to 1000 nM	100 to 1000 nM	–
CC1CCOc2c(cnn2C)-c2nccc(n2)Nc2cc3c(cn2)c(-c2ccc(CN4CCN(C)CC4)o2)nn31 (stereo not shown) [(63), 11,16-dimethyl-19-[5-[(4-methylpiperazin-1-yl)methyl]-2-furyl]-13-oxa-2,6,10,11,17,18,22,25-octazapentacyclo[15.5.2.13,7.08,12.020,24]pentacosa-1(22),3,5,7(25),8(12),9,18,20,23-nonaene]	< 10 nM	< 10 nM	< 10 nM	100 to 1000 nM	< 10 nM	10 to 100 nM	10 to 100 nM	–
CC1CCOc2c(cnn2C)-c2nccc(n2)Nc2cc3c(cn2)c(-c2cnn(C4CC4)c2)nn31 (stereo not shown) [(64)]	< 10 nM	< 10 nM	10 to 100 nM	100 to 1000 nM	10 to 100 nM	10 to 100 nM	10 to 100 nM	–
Cn1ncc2c1OCCCn1nc(N3CCCC3C(=O)O)c3cnc(cc31)Nc1ccnc-2n1 (stereo not shown) [(65)]	< 10 nM	< 10 nM	100 to 1000 nM	100 to 1000 nM	100 to 1000 nM	100 to 1000 nM	100 to 1000 nM	–
CN1CCN(C(=O)C2CCN(c3nn4c5cc(ncc35)Nc3ccnc(n3)-c3cnn(C)c3OCCC4)C2)CC1 (stereo not shown) [(66)]	< 10 nM	< 10 nM	10 to 100 nM	≥ 1000 nM	100 to 1000 nM	100 to 1000 nM	100 to 1000 nM	–
CC1CCOc2c(cnn2C)-c2nccc(n2)Nc2cc3c(cn2)c(-c2ccn(C)n2)nn31 (stereo not shown) [(69)]	< 10 nM	< 10 nM	10 to 100 nM	≥ 1000 nM	10 to 100 nM	10 to 100 nM	10 to 100 nM	–
C[C@H]1CCOc2c(cnn2C)-c2nccc(n2)Nc2cc3c(cn2)c(N2CCC2)nn31 [(70)]	< 10 nM	< 10 nM	< 10 nM	–	10 to 100 nM	10 to 100 nM	< 10 nM	100 to 1000 nM
CC1CCCOc2c(cnn2C)-c2nccc(n2)Nc2cc3c(cn2)c(N2CCCC2)nn31 (stereo not shown) [(71)]	< 10 nM	< 10 nM	< 10 nM	100 to 1000 nM	10 to 100 nM	10 to 100 nM	10 to 100 nM	–
CC(C)n1ncc2c1OCCCC(C)n1nc(N3CCC3)c3cnc(cc31)Nc1ccnc-2n1 (stereo not shown) [(74)]	< 10 nM	< 10 nM	100 to 1000 nM	≥ 1000 nM	100 to 1000 nM	100 to 1000 nM	100 to 1000 nM	–
CC1CCCOc2c(cnn2C)-c2nccc(n2)Nc2cc3c(cn2)c(-c2ccnn2C)nn31 (stereo not shown) [(75)]	< 10 nM	< 10 nM	10 to 100 nM	100 to 1000 nM	10 to 100 nM	10 to 100 nM	10 to 100 nM	–
CCn1cc(-c2nn3c4cc(ncc24)Nc2ccnc(n2)-c2cnn(C)c2OCCC3C)cc1CN1CCN(C)CC1 (stereo not shown) [(76)]	< 10 nM	< 10 nM	< 10 nM	10 to 100 nM	< 10 nM	< 10 nM	< 10 nM	–

The next lines start with results.

IC50 (EGFR^L58R/T790M)	IC50 (EGFR^L858R/T790M/C^797S)	IC50 (EGFR^L858R)	SMILES	IC50 (Ba/F3 Parental; [2])	GI50 (Ba/F3 EGFR-Del19/C797S)	GI50 [1]	GI50 (Ba/F3 EGFR-Del19/T790M)	IC50 (Ba/F3 Parental; anti-proliferation, read-out: BaF3 parental IC50)
< 10 nM	< 10 nM	< 10 nM	CC1CCCOc2c(cnn2C)-c2nccc(n2)Nc2cc3c(cn2)c(N2CCC2)nn31 (stereo not shown) [(1)]	100 to 1000 nM	10 to 100 nM	< 10 nM	< 10 nM	–
< 10 nM	< 10 nM	10 to 100 nM	CC1CCOc2c(cnn2CC2CC2)-c2nccc(n2)Nc2cc3c(cn2)c(N2CCC2)nn31 (stereo not shown) [(2)]	100 to 1000 nM	10 to 100 nM	10 to 100 nM	10 to 100 nM	–
< 10 nM	< 10 nM	10 to 100 nM	Cn1ncc2c1OCCCn1nc(N3CCC3)c3cnc(cc31)Nc1ccnc-2n1 [(3)]	100 to 1000 nM	100 to 1000 nM	100 to 1000 nM	10 to 100 nM	–
< 10 nM	< 10 nM	100 to 1000 nM	Cn1ncc2c1OCCC(C)(C)n1nc(N3CCC3)c3cnc(cc31)Nc1ccnc-2n1 [(4), 19-(azetidin-1-yl)-11,16,16-trimethyl-13-oxa-2,6,10,11,17,18,22,25-octazapentacyclo[15.5.2.1^3,7.0^8,12.0^20,24]pentacosa-1(22),3,5,7(25),8(12),9,18,20,23-nonaene]	≥ 1000 nM	100 to 1000 nM	100 to 1000 nM	100 to 1000 nM	–
< 10 nM	< 10 nM	10 to 100 nM	CCC1CCOc2c(cnn2C)-c2nccc(n2)Nc2cc3c(cn2)c(N2CCC2)nn31 (stereo not shown) [(5)]	≥ 1000 nM	10 to 100 nM	10 to 100 nM	10 to 100 nM	–
< 10 nM	< 10 nM	10 to 100 nM	CC1COc2c(cnn2C)-c2nccc(n2)Nc2cc3c(cn2)c(N2CCC2)nn3C1 (stereo not shown) [(6)]	100 to 1000 nM	10 to 100 nM	10 to 100 nM	10 to 100 nM	–
< 10 nM	< 10 nM	10 to 100 nM	CC1CCOc2c(cnn2C)-c2nccc(n2)Nc2cc3c(cn2)c(N2CC(C(C)(C)O)C2)nn31 (stereo not shown) [(8)]	100 to 1000 nM	10 to 100 nM	10 to 100 nM	10 to 100 nM	–
< 10 nM	< 10 nM	100 to 1000 nM	CN1CCN(CC2CCCN2c2nn3c4cc(ncc24)Nc2ccnc(n2)-c2cnn(C)c2OCCC3)CC1 (stereo not shown) [(10)]	100 to 1000 nM	100 to 1000 nM	100 to 1000 nM	100 to 1000 nM	–
< 10 nM	< 10 nM	100 to 1000 nM	CN(C)CC1CCCN1c1nn2c3cc(ncc13)Nc1ccnc(n1)-c1cnn(C)c1OCCC2 (stereo not shown) [(11)]	100 to 1000 nM	100 to 1000 nM	100 to 1000 nM	100 to 1000 nM	–
< 10 nM	< 10 nM	10 to 100 nM	CC1CCOc2c(cnn2C)-c2nccc(n2)Nc2cc3c(cn2)c(-c2cccn2CCN(C)C)nn31 (stereo not shown) [(12), 2-[2-(11,16-dimethyl-13-oxa-2,6,10,11,17,18,22,25-octazapentacyclo[15.5.2.13,7.08,12.020,24]pentacosa-1(22),3,5,7(25),8(12),9,18,20,23-nonaen-19-yl)pyrrol-1-yl]-N,N-dimethyl-ethanamine]	100 to 1000 nM	10 to 100 nM	10 to 100 nM	10 to 100 nM	–
< 10 nM	< 10 nM	10 to 100 nM	CN(C)CC1CCN(c2nn3c4cc(ncc24)Nc2ccnc(n2)-c2cnn(C)c2OCCC3)C1 (stereo not shown) [(13)]	100 to 1000 nM	100 to 1000 nM	10 to 100 nM	10 to 100 nM	–
< 10 nM	< 10 nM	< 10 nM	CC1CCOc2ccncc2-c2nccc(n2)Nc2cc3c(cn2)c(N2CCC2)nn31 (stereo not shown) [(14), 20-(azetidin-1-yl)-17-methyl-14-oxa-2,6,10,18,19,23,26-heptazapentacyclo[16.5.2.13,7.08,13.021,25]hexacosa-1(23),3,5,7(26),8(13),9,11,19,21,24-decaene]	10 to 100 nM	< 10 nM	< 10 nM	< 10 nM	–
< 10 nM	< 10 nM	10 to 100 nM	CC1CCOc2c(cnn2C)-c2nccc(n2)Nc2cc3c(cn2)c(N2CC(C(=O)N(C)C)C2)nn31 (stereo not shown) [(16)]	100 to 1000 nM	10 to 100 nM	10 to 100 nM	10 to 100 nM	–
< 10 nM	< 10 nM	10 to 100 nM	CC1CCOc2c(cnn2C)-c2nccc(n2)Nc2cc3c(cn2)c(N2CCC2)nn31 (stereo not shown) [(33), 17-(azetidin-1-yl)-20,27-dimethyl-30-oxa-21,22,23,24,25,26,27,28-octazapentacyclopentacosa-2,4(14),5(22),6(23),12(24),13(15),16(18),17(25),19(21)-nonaene]	≥ 1000 nM	10 to 100 nM	10 to 100 nM	10 to 100 nM	–
< 10 nM	< 10 nM	10 to 100 nM	CN1CCN(CC2CCN(c3nn4c5cc(ncc35)Nc3ccnc(n3)-c3cnn(C)c3OCCC4)C2)CC1 (stereo not shown) [(57)]	100 to 1000 nM	10 to 100 nM	10 to 100 nM	10 to 100 nM	–
